“Also recorded” adds a separate entry of the source.
Assays:
[1] = tested on: 1 kb Plus DNA Latter in agarose gel; test: Post-DNA gel staining
Protocol: Serial two-fold dilutions of 1 kb Plus DNA Latter from Invitrogen Co. (Carlsbad, Calif.) were made and the resulting DNA samples were loaded onto an agarose gel in four lanes from left to right with a loading of 200 ng, 100 ng, 50 ng, and 25 ng per lane, respectively. The DNA samples were electrophoretically separated in 1×TBE buffer using a standard protocol. The nucleic acid sample was loaded onto the gel from in four columns from left to right with a loading of 200 ng, 100 ng, 50 ng, and 25 ng per lane, respectively, and electrophoretically separated in 1×TBE buffer using a standard protocol. A stock solution of a Dye No. 20 of Table 1 in DMF at about 12 mM concentration was prepared. […] The agarose gel was submerged in the staining solution for approximately 30 minutes to stain the gel. The resulting gel was then viewed using a UV transilluminator with 254 nm excitation.
A similar procedure was followed to prepare post gel staining solutions of Dye No. 29 of Table 1, except that Dye No. 29 was used in place of Dye No. 20 and at various conditions, as now described. […] Identical DNA samples were prepared, loaded onto three separate agarose gels, and separated via standard gel electrophoreses, in the manner described above. Each of the three separate gels was then stained by immersion in a different one of the resulting gels for about 30 minutes. […]

[2] = cited from earlier work
[3] = tested on: Salmonella typhimurium bacteria, strain TA98; test: Mutagenicity assay, Muta-ChromoPlate test kit (based on the Ames Test, bacterial reverse mutation); conditions: for Mutagenicity relative to the negative control: in the absence of S9 extract; for Positive wells: with S9 extract (rat liver); for Positive wells / Positive wells, Exp 1 / Positive wells, Exp 2: positive wells out of 36, TA98; for Positive wells, Exp 1 / Positive wells, Exp 2: without S9 extract
Source text: The test kit is based on the Ames Test, a bacterial reverse mutation test. The test employs a mutant strain, or several strains, of Salmonella typhimurium bacteria, carrying mutation(s) in the operon coding for histidine biosynthesis. When the bacteria are exposed to mutagenic agents under certain conditions, reverse mutation from amino acid (histidine) auxotrophy to prototrophy occurs. […] S9 extract is a rat liver extract that comprises various metabolic enzymes. The tests associated with the presence of S9 extract were undertaken to give information on the potential genotoxicity of the metabolized dyes. […] Each single test was carried out using 36 wells and the number of positive wells out of each 36 wells was taken as an indicator of the relative mutagenicity levels of the dye under the test conditions. As a negative control, bacteria were also incubated in the absence of a dye.
Mutagenicity assays were carried out using a Muta-ChromoPlate test kit from EBPI (Brampton, Ontario, Canada). […] A solution without a dye (zero dose level) was assayed in the absence and presence of S9 extract, as a control or negative control. S9 extract is a rat liver extract that comprises various metabolic enzymes. The tests associated with the presence of S9 extract were undertaken to provide information on the potential genotoxicity of the metabolized dyes. […] Each single test was carried out using 36 wells and the number of positive wells out of each 36 wells was taken as an indicator of the relative mutagenicity levels of the dye under the test conditions.

[4] = tested on: Salmonella typhimurium bacteria, strain TA98; conditions: cited from earlier work
[5] = Hydrolytic, thermal and storage stability in water, electrophoresis buffers and pre-cast gels; format: physicochemical
[6] = Stability in TBE buffer, optical density at absorption maximum over 24 hours; format: physicochemical; conditions: 1.2 μM in 1×TBE buffer, room temperature, monitored at 500 nm
Protocol: SYBR Gold 10,000× in DMSO from Molecular Probes, Inc. (Eugene, Oreg.) was diluted to 1× working concentration, as recommended by the manufacturer, in 1×TBE buffer. A stock solution of Dye No. 35 of Table 1 in DMSO (12 mM) was diluted to 1.2 μM in 1×TBE buffer. The optical density associated with each of the solutions was monitored at the absorption maximum of the dye (488 nm for SYBR Gold and 500 nm for Dye No. 35) over the course of a 24-hour period at room temperature.

[7] = tested on: 1 kb Plus DNA Latter in agarose gel; test: Pre-cast DNA gel staining; conditions: 1.2 μM in TBE versus EB 1.3 μM; 300 nm UV
Protocol: An agarose gel solution (1% agarose) was prepared following a standard protocol (J. Roskams et al., Lab Ref: A Handbook of Recipes, Reagents, and Other Reference Tools for Use at the Bench, Cold Spring Harbor Laboratory Press, Cold Spring Harbor, N.Y., 2002). A stock solution of a Dye No. 35 (ET-27) of Table 1 in DMF at 12 mM concentration was prepared. An aliquot of the stock solution of dye was added to the gel solution, while it was hot, resulting in an effective working concentration of the dye of about 1.2 μM. The resulting solution was thoroughly mixed by swirling. The resulting gel solution was poured onto a gel slab to cast the gel. Serial two-fold dilutions of 1 kb Plus DNA Latter from Invitrogen Co. (Carlsbad, Calif.) were made and the resulting DNA samples were loaded onto the gel in four lanes from left to right with a loading of 200 ng, 100 ng, 50 ng, and 25 ng per lane, respectively. The DNA samples were electrophoretically separated in 1×TBE buffer using a standard protocol. The resulting gel was then viewed using a UV transilluminator with 300 nm excitation. The same procedure was followed using a stock solution of EB at about 0.5 μg/mL (or 1.3 μM) in DMF in place of the stock solution of Dye No. 35 of Table 1.
It should be noted that other dyes described herein may be prepared and employed in the manner described in this Example 49, or a similar manner.

[8] = pre-cast gel prepared with the dye

| Compound | Mutagenicity relative to the negative control [3] | Positive wells ([3]; 0.25 nmole) | Positive wells ([3]; 2.5 nmoles) | Positive wells ([3]; 25 nmoles) | Positive wells, Exp 1 ([3]; 0.25 nmole) | Positive wells, Exp 2 ([3]; 0.25 nmole) | Positive wells, Exp 1 ([3]; 2.5 nmoles) | Positive wells, Exp 2 ([3]; 2.5 nmoles) | Positive wells, Exp 1 ([3]; 25 nmoles) | Positive wells, Exp 2 ([3]; 25 nmoles) | further results |
| --- | --- | --- | --- | --- | --- | --- | --- | --- | --- | --- | --- |
| CCCN(CCCN(C)C)c1cc(/C=C2/Sc3ccccc3N2C)c2ccccc2[n+]1-c1ccccc1 [SYBR Green I] |  |  |  |  |  |  |  |  |  |  | DNA band brightness in post-DNA gel staining ([1]; staining solution in 1×TBE that lacked NaCl): relatively weaker or less bright DNA bands overall; Hydrolytic stability ([2]; aqueous solution, particularly buffers having a pH of 7 or more): hydrolytically unstable; Time within which pre-cast gel is used before losing utility [2, 8]: 24 h |
| CC[n+]1c(-c2ccccc2)c2cc(N)ccc2c2ccc(N)cc21 [EB, ethidium bromide, reference compound] | very weak mutagenicity | 22 | 17 | 16 | 0 | 0 | 0 | 3 | 0 | 3 | Mutagenicity ([3]; in the presence of S9 extract): significantly greater mutagenicity than Dye No. 35; Frame shift mutagenicity in Ames Test (known) [4]: known frame shift mutagen |
| C[n+]1c(C=C2C=CN(CCCCCC(=O)NCCCOCCOCCOCCCNC(=O)CCCCCN3C=CC(=Cc4sc5ccccc5[n+]4C)c4ccccc43)c3ccccc32)sc2ccccc21 [Dye No. 29, TOTO-13] |  |  |  |  |  |  |  |  |  |  | Sensitivity in post-DNA gel staining versus SYBR Safe and SYBR Green I ([1]; dye 3.6 μM, SYBR dyes 1× in TBE, 200-25 ng DNA per lane, 254-nm UV transilluminator): substantially more sensitive than SYBR Safe and is as sensitive as SYBR Green I |
| Nc1ccc2c(c1)c(-c1ccccc1)[n+](CCCCCC(=O)NCCCOCCOCCOCCCNC(=O)CCCCC[n+]1c(-c3ccccc3)c3cc(N)ccc3c3ccc(N)cc31)c1cc(N)ccc21 [Dye No. 35, ET-27] | very weak mutagenicity | 0 | 9 | 0 | 2 | 0 | 1 | 3 | 1 | 3 | Time heated in a microwave oven without decomposition ([5]; dye in TBE buffer): 10 min; Storage time of pre-cast gel without loss of performance [5, 8]: 3 months; Time stable in an electrophoresis buffer, such as TBE buffer ([5]; room temperature): 6 months; Toxicity and mutagenicity, overall statement ([3]; comparison of Dye No. 35 with EB): relatively low in toxicity and mutagenicity; also recorded: may be less mutagenic than EB; Absorbance over the 24-hour period [6]: relatively constant; Sensitivity with respect to low level DNA, relative to EB [7]: more sensitive with respect to low level DNA; Sensitivity with respect to shorter DNA fragments, relative to EB [7]: more sensitive with respect to shorter DNA fragments |
